≈ marks a conversion by molar mass, not a printed value. Read-outs that look alike come from different tables or passages of the source.
Key:
[1] = system: rpoA gene (RNA polymerase α subunit) of C. difficile ATCC 630; assay: RT-PCR rpoA gene expression; assay type: cell-based, Clostridioides difficile; conditions: 12 hours, qPCR
Method: (§1) The antisense effect of the rpoA-TAT conjugate was evaluated using a real-time quantitative reverse-transcriptase polymerase chain reaction (RT-PCR) assay ([11], [12]). Briefly, an overnight culture of C. difficile ATCC 630 was diluted in fresh Mueller-Hilton broth II and added in triplicate to low-adhesion microcentrifuge tubes. […] The tubes were incubated anaerobically at 37°C for 12 hours following which the bacterial pellet in each treatment group was collected by centrifugation at 10,000 × g for 10 minutes. Bacteria were subsequently lysed with recombinant lysostaphin (100 µg/mL) in Tris-EDTA (TE) buffer (1 mol/L Tris, 0.5 mol/L ethylenediaminetetraacetate pH 8, nuclease-free H20), and total RNA was extracted using the TRIzol Max Bacterial Isolation Kit as per the manufacturer’s instructions. Turbo DNAse was used to remove genomic DNA contamination from each sample as per the protocol. cDNA was synthesized using the SuperScript III First-Strand Synthesis Kit as per the manufacturer’s instructions. The relative quantification of cDNA for each treatment group was determined using the iTaq Universal SYBR Green One-Step Kit and CFX96 Real-Time PCR Detection System per the manufacturer’s instructions.
(§2) The constitutively expressed tpi gene was used as an internal control. Real-time RT-PCR results were analyzed using the 2^-ΔΔCT method.

[2] = system: toxin B (tcdB) gene of C. difficile ATCC 630; assay: RT-PCR toxin B (tcdB) gene expression; assay type: cell-based, Clostridioides difficile; conditions: 12 hours, qPCR
Method: as §1, §2

[3] = system: gut microflora strains (Lactobacillus sp., Bacteroides sp., and Bifidobacterium sp.); assay: Growth inhibition of representative gut microflora strains (summary); assay type: cell-based; conditions: broth microdilution, 48 hours
Method: (§3) The susceptibility of gut microflora strains to the rpoA-TAT conjugate was determined using the broth microdilution assay, as described above. Briefly, bacterial suspensions of Bifidobacterium sp. and Bacteroides sp., in supplemented BHIS broth, and Lactobacilli strains, in MRS broth, were added to ultra-low adhesion 96-well plates and serially diluted. The MIC was recorded after 48 hours.

[4] = system: toxin A (tcdA) gene of C. difficile ATCC 630; assay: RT-PCR toxin A (tcdA) gene expression; assay type: cell-based, Clostridioides difficile; conditions: 12 hours, qPCR
Method: as §1, §2

[5] = system: spoOA gene of C. difficile ATCC 630; assay: RT-PCR spoOA gene expression; assay type: cell-based; conditions: 12 hours, qPCR
Method: as §1, §2

[6] = system: C. difficile 630; assay: Effect of high bacterial inoculum on activity; assay type: cell-based, Clostridioides difficile; conditions: 8 hours; for Log reduction: vs no treatment
Method: The in vitro efficacy of the PNA constructs against a high inoculum size of C. difficile 630 was determined. Briefly, the PNA constructs and control antibiotics, at a concentration of 1× MIC, were added in triplicate to low adhesion microcentrifuge tubes (Corning Inc., Corning, NY). A high inoculum of C. difficile suspension equivalent to ~5 × 10^6 and ~5 × 10^7 cells was added to the tubes, which were incubated anaerobically at 37°C. The number of viable bacteria in each treatment group was determined by serial dilution and plating on BHIS agar plates at 8 hours and 24 hours post-incubation, respectively. The effect of a high inoculum on the activity of the PNA construct was repeated twice.

[7] = system: Bifidobacterium longum subsp. longum HM 846; assay: MIC gut microflora, Bifidobacterium longum; assay type: cell-based
Method: as §3

[8] = system: C. difficile ATCC BAA 1870; assay: Effect of pH on MIC/MBC, C. difficile ATCC BAA 1870; assay type: cell-based, Clostridioides difficile; conditions: for MBC: read-out: MBC; for MIC: read-out: MIC
Method: The susceptibility of C. difficile isolates to the CPP-PNA conjugates or to the CPP alone was determined in vitro as described before with slight modifications ([43] [–] [45]). Briefly, the CPP-PNA conjugates, the CPP alone, and the antibiotics vancomycin and fidaxomicin were added in triplicate to the first row of ultra-low adhesion 96-well plates (Corning Inc., Corning, NY). A suspension of C. difficile equivalent to 0.5 McFarland solution was added to Mueller-Hilton II broth, which was then added to the ultra-low adhesion plate and then serially diluted. The plates were incubated anaerobically for 48 hours at 37°C. The minimum inhibitory concentration was defined as the lowest concentration of the CPP-PNA conjugate that could inhibit bacterial growth when observed visually.
The MIC and MBC experiments were repeated twice.
The susceptibility of C. difficile (ATCC 630 and ATCC BAA 1870) to the rpoA-TAT conjugate was evaluated over a pH range of 6 to 9 using the broth microdilution method ([43], [46] [–] [48]). The desired pH for susceptibility testing was attained by the addition of either 0.1 N HCL or 1 N NaOH to the media. The experiment was repeated twice.

[9] = broth microdilution, supplemented BHIS broth, 48 hours
[10] = Clostridioides difficile, BAA1870, pH 6
[11] = Clostridioides difficile, BAA1870, pH 7
[12] = Clostridioides difficile, BAA1870, pH 8

GRKKKRRQRRRYK-O-CATGGACAAAAC-NH2 [rpoA-TAT, PNA oligomer antisense to C. difficile rpoA covalently conjugated to the TAT cell penetrating peptide]
reduction of rpoA gene expression ([1]; 0.125× MIC (1 µM), tpi internal control): 34% | reduction of rpoA gene expression ([1]; 0.25× MIC (2 µM)): 46.3% | reduction of rpoA gene expression ([1]; 0.5× MIC (4 µM)): 78.2% | reduction of toxin B (tcdB) gene expression ([2]; 0.125× MIC (1 µM)): 26% | reduction of toxin B (tcdB) gene expression ([2]; 0.25× MIC (2 µM)): 51.2% | reduction of toxin B (tcdB) gene expression ([2]; 0.5× MIC (4 µM)): 74.5% | concentration without growth inhibition of gut microflora strains [3]: > 32 µM | reduction of toxin A (tcdA) gene expression ([4]; 0.125× MIC (1 µM)): 41.3% | reduction of toxin A (tcdA) gene expression ([4]; 0.25× MIC (2 µM)): 50.7% | reduction of toxin A (tcdA) gene expression ([4]; 0.5× MIC (4 µM)): 71.2% | reduction of spoOA gene expression ([5]; 0.125× MIC (1 µM)): 45.2% | reduction of spoOA gene expression ([5]; 0.25× MIC (2 µM)): 58.4% | reduction of spoOA gene expression ([5]; 0.5× MIC (4 µM)): 68.5% | Log CFU ([6]; inoculum 5 × 10^6, 1× MIC): 0 | Log reduction ([6]; inoculum 5 × 10^6, 1× MIC): 6.37 | Log CFU ([6]; inoculum 5 × 10^7, 1× MIC): 0 | Log reduction ([6]; inoculum 5 × 10^7, 1× MIC): 7.77 | MIC [7, 9]: >32 µM | MBC ([8]; pH 6): 8 µM | MIC ([8]; pH 6): 8 µM | MBC ([8]; pH 7): 8 µM | MIC ([8]; pH 7): 8 µM

CCc1c(Cl)c(O)c(Cl)c(O)c1C(=O)O[C@H]1[C@H](O)[C@H](OC)[C@H](OC/C2=C\C=C\C[C@H](O)/C(C)=C/[C@H](CC)[C@@H](O[C@@H]3OC(C)(C)[C@@H](OC(=O)C(C)C)[C@H](O)[C@@H]3O)/C(C)=C/C(C)=C/C[C@@H]([C@@H](C)O)OC2=O)O[C@@H]1C [Fidaxomicin, fidaxomicin]
Log CFU ([6]; inoculum 5 × 10^6, 1× MIC): 0 | Log reduction ([6]; inoculum 5 × 10^6, 1× MIC): 6.37 | Log CFU ([6]; inoculum 5 × 10^7, 1× MIC): 0 | Log reduction ([6]; inoculum 5 × 10^7, 1× MIC): 7.77 | MIC ([7]; Bifidobacterium longum, 48 h): 0.125 µM (≈ 0.132 µg/mL) | MIC [7, 9]: 0.125 µM (≈ 0.132 µg/mL) | MBC [8, 10]: 2 µM (≈ 2.12 µg/mL) | MIC [8, 10]: 1 µM (≈ 1.06 µg/mL) | MBC [8, 11]: 2 µM (≈ 2.12 µg/mL) | MIC [8, 11]: 1 µM (≈ 1.06 µg/mL) | MBC [8, 12]: 4 µM (≈ 4.23 µg/mL) | MIC [8, 12]: 1 µM (≈ 1.06 µg/mL)

Source: PMC10581251, “Antisense inhibition of RNA polymerase α subunit of Clostridioides difficile” (Microbiology Spectrum, 2023)
